Literature values in US20030228375A1 (priority 2002, published 2003).
Like-named read-outs stand apart in the source and are kept apart here.

Columns and labels:
[1] = supplementation
[2] = in vivo
[3] = supplementation; remark: listed apart in the source
[4] = test system: young female rats
[5] = target: T1, aromatase (Homo sapiens, UniProt P11511); details: compared with chrysin, AG and ANG
T1 sequence (P11511 1-503): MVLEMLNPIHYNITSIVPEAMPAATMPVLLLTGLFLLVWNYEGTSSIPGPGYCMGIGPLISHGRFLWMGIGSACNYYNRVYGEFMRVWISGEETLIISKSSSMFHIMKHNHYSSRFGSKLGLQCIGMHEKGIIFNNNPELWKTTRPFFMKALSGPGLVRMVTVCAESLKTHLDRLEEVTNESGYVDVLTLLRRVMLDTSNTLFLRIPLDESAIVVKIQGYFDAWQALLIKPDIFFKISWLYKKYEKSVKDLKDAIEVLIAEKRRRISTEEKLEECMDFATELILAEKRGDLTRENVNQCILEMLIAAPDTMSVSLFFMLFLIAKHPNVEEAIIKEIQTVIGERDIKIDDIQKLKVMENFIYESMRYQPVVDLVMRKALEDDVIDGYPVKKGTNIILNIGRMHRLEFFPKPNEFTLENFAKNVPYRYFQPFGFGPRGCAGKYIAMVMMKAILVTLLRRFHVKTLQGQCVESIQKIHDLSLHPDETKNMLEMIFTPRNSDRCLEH

[6] = test system: people with panhypopituitarism
[7] = test system: levator ani muscles
[8] = test system: prostate and seminal vesicle weights
[9] = test system: hypogonadal men; details: for waking erection: Asian group; for sexual interest and activity, spontaneous erection: Caucasian group
[10] = test system: healthy young men; details: 300 mg/wk for six weeks; TE shoulders, ND shoulders and chest
[11] = test system: HIV-infected men; details: pharmacological doses
[12] = test system: patients on dialysis; details: compared with placebo
[13] = body builders
[14] = nandrolone use

Structure (SMILES): C[C@]12CC[C@H]3[C@@H](CCC4=C[C@@H](O)CC[C@@]43C)[C@@H]1CC[C@@H]2O [4-androstenediol]
- urine testosterone concentration relative to 4-androstenedione [1]: 10 fold
- human serum testosterone levels [2]: elevations in human serum testosterone levels

Structure (SMILES): C[C@]12CCC(=O)C=C1CC[C@@H]1[C@@H]2CC[C@]2(C)C(=O)CC[C@@H]12 [4-androstenedione]
- serum testosterone [3]: elevations in serum testosterone

Structure (SMILES): C[C@]12CC[C@H]3[C@@H](CC=C4C[C@@H](O)CC[C@@]43C)[C@@H]1CC[C@@H]2O [5-androstenediol]
- proportion of protein in the body composition [4]: increased the proportion of protein

Structure (SMILES): COc1ccc(-c2coc3cc(O)cc(O)c3c2=O)cc1 [Biochanin A, 5,7-dihydroxy-4′-methoxyisoflavone]
- aromatase inhibition [5]: inhibited aromatase, but to a lesser degree

Structure (SMILES): C[C@]12CC[C@H](O)CC1=CC[C@@H]1[C@@H]2CC[C@]2(C)C(=O)CC[C@@H]12 [DHEA, dehydro-epiandrosterone]
- plasma testosterone ([6]; 50 mg dose): restored plasma testosterone to levels similar to those observed in young women
- plasma estrogens, particularly estradiol ([6]; 50 mg or 200 mg): significant and dose dependent increase
- plasma testosterone ([6]; 200 mg dose): slightly below the levels observed in normal men

Structure (SMILES): C[C@@H]1CC2=CC(=O)CC[C@@H]2[C@H]2CC[C@]3(C)[C@@H](O)CC[C@H]3[C@@H]21 [MENT, 7α-methyl-19-nor-testosterone]
- anabolic potency relative to testosterone [7]: ten-times as potent as testosterone
- androgenic potency relative to testosterone [8]: four- to five-times more androgenic than testosterone
- waking erection [9]: increased waking erection
- sexual interest and activity, spontaneous erection [9]: significant increases

Structure (SMILES): CCCCCCCCCC(=O)O[C@H]1CC[C@H]2[C@@H]3CCC4=CC(=O)CC[C@@H]4[C@H]3CC[C@]12C [ND, 19-nor-testosterone decanoate]
- body circumferences (of fifteen) [10]: significant increases
- total weight, lean body mass, body cell mass, muscle size and strength [11]: significant gains

Structure (SMILES): CCCCCCC(=O)O[C@H]1CC[C@H]2[C@@H]3CCC4=CC(=O)CC[C@]4(C)[C@H]3CC[C@]12C [TE, testosterone enanthate]
- body circumferences (of fifteen) [10]: significant increases
- waking erection [9]: increased waking erection
- sexual interest and activity, spontaneous erection [9]: significant increases

Structure (SMILES): C[C@]12CC[C@H]3[C@@H](CCC4=CC(=O)CC[C@@H]43)[C@@H]1CC[C@@H]2O [nandrolone, 19-nor-testosterone]
- lean body mass [12]: increased significantly
- energy expenditure [4]: increased energy expenditure
- decrease in HDL-cholesterol [13]: 25-27%
- effect on sperm [14]: azoospermia

Structure (SMILES): C[C@]12CC[C@H]3[C@@H](CCC4=CC(=O)CC[C@@]43C)[C@@H]1CC[C@@H]2O [testosterone]
- proportion of protein in the body composition [4]: increased the proportion of protein
